# Target: T1, Brd4 bromodomain 1 (Homo sapiens, UniProt O60885)
# T1 construct: made in house; host or cells: E. coli BL21(DE3)
# Assay: Inhibition of binding of tetra-acetylated histone H4 to Brd4 bromodomain 1 (TR-FRET)
# Details: His-tagged Brd4 bromodomain 1 200 nM, tetra-acetylated histone H4 peptide 25-50 nM, 2 hours room temperature
# Procedure: Proteins were cloned and overexpressed with a N-terminal 6×His tag, then purified by nickel affinity followed by size exclusion chromatography. Briefly, E. coli BL21(DE3) cells were transformed with a recombinant expression vector encoding N-terminally Nickel affinity tagged bromodomains from Brd2, Brd3, Brd4. Cell cultures were incubated at 37° C. with shaking to the appropriate density and induced overnight with IPTG. The supernatant of lysed cells was loaded onto Ni-IDA column for purification. Eluted protein was pooled, concentrated and further purified by size exclusion chromatography. Fractions representing monomeric protein were pooled, concentrated, aliquoted, and frozen at −80° C. for use in subsequent experiments.
# For inhibition assays, serially diluted test compound was added to these reactions in a 0.2% final concentration of DMSO. Final buffer concentrations were 30 mM HEPES pH 7.4, 30 mM NaCl, 0.3 mM CHAPS, 20 mM phosphate pH 7.0, 320 mM KF, 0.08% BSA). […] The binding inhibitory activity was shown by a decrease in 665 nm fluorescence relative to 620 nm. IC50 values were determined from a dose response curve.
row,FRET activity (<50 uM),SMILES
1,Active,"COc1cc(OC)c2c(=O)[nH]c(-c3cc(C)c(OCCN4Cc5ccccc5C4)c(C)c3)nc2c1 [Example 65, 2-(4-(2-(Isoindolin-2-yl)ethoxy)-3,5-dimethylphenyl)-5,7-dimethoxyquinazolin-4(3H)-one]"
2,Active,"COc1cc(OC)c2c(=O)[nH]c(-c3ccc(NS(C)(=O)=O)cc3)nc2c1 [Example 59, N-(4-(5,7-Dimethoxy-4-oxo-3,4-dihydroquinazolin-2-yl)phenyl)methanesulfonamide]"
3,Inactive,"Cc1cc(-c2nc3nc(OC(C)C)cc(OC(C)C)c3c(=O)[nH]2)cc(C)c1OCCN1CCCC1 [Example 91, 2-(3,5-Dimethyl-4-(2-(pyrrolidin-1-yl)ethoxy)phenyl)-5,7-diisopropoxypyrido[2,3-d]pyrimidin-4(3H)-one]"
4,Inactive,"COc1cc(OC)c2c(=O)[nH]c(-c3ccc(Nc4ccc(C)cc4)cc3)nc2c1 [Example 61, 5,7-Dimethoxy-2-(4-(p-tolylamino)phenyl)quinazolin-4(3H)-one]"
5,Inactive,"COc1cc(OC)c2c(=O)[nH]c(-c3cc(C)c(OCCN4C(=O)c5ccccc5C4=O)c(C)c3)cc2c1 [Example 90, 2-(2-(4-(6,8-Dimethoxy-1-oxo-1,2-dihydroisoquinolin-3-yl)-2,6-dimethylphenoxy)ethyl)isoindoline-1,3-dione]"
6,Inactive,"COc1cccc(-c2nc3cc(OC)cc(OC)c3c(=O)[nH]2)c1 [Example 116, 5,7-Dimethoxy-2-(3-methoxyphenyl)quinazolin-4(3H)-one]"
7,Active,"COc1cc(OC)c2c(=O)[nH]c(-c3ccc(CN4CCC(N(C(C)=O)C(C)C)CC4)cc3)nc2c1 [Example 94, N-(1-(4-(5,7-Dimethoxy-4-oxo-3,4-dihydroquinazolin-2-yl)benzyl)piperidin-4-yl)-N-isopropylacetamide]"
8,Active,"COc1cc(OC)c2c(=O)[nH]c(-c3ccc(CN4CCN(C(C)C)CC4)cc3)nc2c1 [Example 93, 2-(4-((4-Isopropylpiperazin-1-yl)methyl)phenyl)-5,7-dimethoxyquinazolin-4(3H)-one]"
9,Active,"COc1cc(OC)c2c(=O)[nH]c(-c3ccc(OC4CCN(C(C)=O)CC4)cc3)nc2c1 [Example 64, 2-(4-(1-Acetylpiperidin-4-yloxy)phenyl)-5,7-dimethoxyquinazolin-4(3H)-one]"

# Further lines, the molecule ahead of its results:
row,SMILES,FRET activity (<50 uM)
1,"COc1cc(OC)c2c(=O)[nH]c(-c3ccc(N4CCC(=O)CC4)cc3)nc2n1 [Example 52, 5,7-Dimethoxy-2-(4-(4-oxopiperidin-1-yl)phenyl)pyrido[2,3-d]pyrimidin-4(3H)-one]",Inactive
2,"COc1cc(OC)c2c(=O)[nH]c(-c3ccc(N4CCN(C(=O)c5cccs5)CC4)cc3)nc2c1 [Example 24, 5,7-Dimethoxy-2-(4-(4-(thiophene-2-carbonyl)piperazin-1-yl)phenyl)quinazolin-4(3H)-one]",Active
3,"COc1cc(OC)c2c(=O)[nH]c(-c3ccc(C4CCNCC4)cc3)nc2c1 [Example 43, 5,7-Dimethoxy-2-(4-(piperidin-4-yl)phenyl)quinazolin-4(3H)-one]",Active
4,"COc1cc(OC)c2c(=O)[nH]c(-c3ccc(N4CCN(C(=O)c5cnn(C)c5Cl)CC4)cc3)nc2c1 [Example 25, 2-(4-(4-(5-Chloro-1-methyl-1H-pyrazole-4-carbonyl)piperazin-1-yl)phenyl)-5,7-dimethoxyquinazolin-4(3H)-one]",Inactive
5,"COc1cc(OC)c2c(=O)[nH]c(-c3ccc(N4CCN(C(=O)C(C)C)CC4)cc3)nc2c1 [Example 17, 2-(4-(4-Isobutyrylpiperazin-1-yl)phenyl)-5,7-dimethoxyquinazolin-4(3H)-one]",Active
6,"COc1cc(OC)c2c(=O)[nH]c(-c3ccc(N4CCN(CCO)CC4)cc3)nc2c1 [Example 1, 2-(4-(4-(2-hydroxyethyl)piperazin-1-yl)phenyl)-5,7-dimethoxyquinazolin-4(3H)-one]",Active
7,"COc1cc(OC)c2c(=O)[nH]c(-c3ccc4[nH]c(CCN5CCCC5)cc4c3)nc2c1 [Example 57, 5,7-Dimethoxy-2-(2-(2-(pyrrolidin-1-yl)ethyl)-1H-indol-5-yl)quinazolin-4(3H)-one]",Active
8,"COc1cc(OC)c2c(=O)[nH]c(-c3ccc(N4CCNC(C)C4)cc3)nc2c1 (stereo not drawn) [Example 48, 5,7-Dimethoxy-2-(4-(3-methylpiperazin-1-yl)phenyl)quinazolin-4(3H)-one]",Active
9,"COc1cc(OC)c2c(=O)[nH]c(-c3ccc(N4C[C@@H](C)N(C(C)=O)[C@@H](C)C4)cc3)nc2c1 [Example 36, 2-(4-((3R,5S)-4-Acetyl-3,5-dimethylpiperazin-1-yl)phenyl)-5,7-dimethoxyquinazolin-4(3H)-one]",Active
10,"COc1cc(OC)c2c(=O)[nH]c(-c3ccc(N4CCCN(C(C)=O)CC4)cc3)nc2c1 [Example 32, 2-(4-(4-Acetyl-1,4-diazepan-1-yl)phenyl)-5,7-dimethoxyquinazolin-4(3H)-one]",Active
11,"COc1cc(OC)c2c(=O)[nH]c(-c3ccc(N4C[C@@H](C)N(C(C)C)[C@@H](C)C4)cc3)nc2c1 [Example 42, 2-(4-((3R,5S)-4-Isopropyl-3,5-dimethylpiperazin-1-yl)phenyl)-5,7-dimethoxyquinazolin-4(3H)-one]",Active
12,"COc1cc(OC)c2c(=O)[nH]c(-c3ccc(N4CCC(NCc5ccccc5)CC4)nc3)nc2c1 [Example 50, 2-(6-(4-(Benzylamino)piperidin-1-yl)pyridin-3-yl)-5,7-dimethoxyquinazolin-4(3H)-one]",Active
13,"CCN(C(C)=O)C1CCN(c2ccc(-c3nc4cc(OC)cc(OC)c4c(=O)[nH]3)cc2)CC1 [Example 35, N-(1-(4-(5,7-Dimethoxy-4-oxo-3,4-dihydroquinazolin-2-yl)phenyl)piperidin-4-yl)-N-ethylacetamide]",Active
14,"CNC1CCN(c2ccc(-c3nc4cc(OC)cc(OC)c4c(=O)[nH]3)cc2)C1 (stereo not drawn) [Example 44, 5,7-Dimethoxy-2-(4-(3-(methylamino)pyrrolidin-1-yl)phenyl)quinazolin-4(3H)-one]",Active
15,"CC(C)N1CCN(c2ccc(-c3nc4cccc(Cl)c4c(=O)[nH]3)cc2)CC1 [Example 41, 5-Chloro-2-(4-(4-isopropylpiperazin-1-yl)phenyl)quinazolin-4(3H)-one]",Inactive
16,"COc1cc(OC)c2c(=O)[nH]c(-c3ccc(N4CCN(C(C)=O)CC4)cc3)nc2c1 [Example 11, 2-(4-(4-Acetylpiperazin-1-yl)phenyl)-5,7-dimethoxyquinazolin-4(3H)-one]",Active
17,"COc1cc(OC)c2c(=O)[nH]c(-c3ccc(N4CCN(C(=O)c5ccc(F)cc5)CC4)cc3)nc2c1 [Example 19, 2-(4-(4-(4-Fluorobenzoyl)piperazin-1-yl)phenyl)-5,7-dimethoxyquinazolin-4(3H)-one]",Inactive
18,"COc1cc(OC)c2c(=O)[nH]c(-c3ccc(N4CCC(NC(C)=O)C4)cc3)nc2c1 (stereo not drawn) [Example 39, N-(1-(4-(5,7-Dimethoxy-4-oxo-3,4-dihydroquinazolin-2-yl)phenyl)pyrrolidin-3-yl)acetamide]",Active
